Test results from patent US12077503B2, “Substituted cyclic amides and their use as herbicides” (FMC CORPORATION, priority 2015, dated 2024).

How the values were obtained:
Format in all cases: in vivo
[1] = test system: barnyardgrass (Echinochloa crus-galli); experiment: Test A preemergence; settings: Echinochloa crus-galli, pre-emergence, 240 h, Preemergence; for pest or weed control at 31 g/ha: 31 g ai/ha, 0 to 100 scale where 0 is no effect and 100 is complete control, read-out: Barnyardgrass plant response rating; for pest or weed control at 125 g/ha: 125 g ai/ha, visual injury rating after approximately 10 d, read-out: Barnyardgrass plant response rating (0 to 100 scale, 0 is no effect, 100 is complete control)
Outline: (§1)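 Seeds sprayed preemergence with a directed soil spray, or plants at 2 to 10 cm height and one- to two-leaf stage sprayed postemergence, with test chemicals in a non-phytotoxic solvent mixture containing surfactant, in loam soil–sand blend. Injury rated visually against untreated controls after about 10 d in greenhouse, 0 (no effect) to 100 (complete control).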

[2] = test system: pigweed (Amaranthus retroflexus); experiment: Test A preemergence; settings: Amaranthus retroflexus, pre-emergence, 240 h, 0 to 100 scale where 0 is no effect and 100 is complete control, read-out: Pigweed plant response rating; for pest or weed control at 31 g/ha: 31 g ai/ha, Preemergence; for pest or weed control at 125 g/ha: 125 g ai/ha, preemergence, approx. 10 d
[3] = test system: Kochia (Kochia scoparia); experiment: Test A preemergence; settings: Bassia scoparia, pre-emergence, 240 h, 0 to 100 scale where 0 is no effect and 100 is complete control, read-out: Kochia plant response rating; for pest or weed control at 31 g/ha: 31 g ai/ha, Preemergence; for pest or weed control at 125 g/ha: 125 g ai/ha, preemergence, approx. 10 d
Outline: as §1

[4] = test system: ryegrass, Italian (Italian ryegrass, Lolium multiflorum); experiment: Test A preemergence; settings: Lolium multiflorum, pre-emergence, 240 h, 0 to 100 scale where 0 is no effect and 100 is complete control, read-out: Ryegrass, Italian plant response rating; for pest or weed control at 31 g/ha: 31 g ai/ha, Preemergence; for pest or weed control at 125 g/ha: 125 g ai/ha, preemergence, approx. 10 d
Outline: as §1

[5] = test system: ragweed (common ragweed, Ambrosia elatior); experiment: Test A preemergence; settings: Ambrosia artemisiifolia, pre-emergence, 240 h, 0 to 100 scale where 0 is no effect and 100 is complete control, read-out: Ragweed plant response rating; for pest or weed control at 31 g/ha: 31 g ai/ha, Preemergence; for pest or weed control at 125 g/ha: 125 g ai/ha, preemergence, approx. 10 d
Outline: as §1

[6] = test system: barnyardgrass (Echinochloa crus-galli); experiment: Test A postemergence; settings: Echinochloa crus-galli, post-emergence, 240 h; for pest or weed control at 125 g/ha: 125 g ai/ha, postemergence, visual injury on 0 to 100 scale (0 no effect, 100 complete control), approx. 10 d, read-out: Barnyardgrass plant response rating; for pest or weed control at 31 g/ha: Postemergence, 31 g ai/ha, visual injury after approx. 10 d, 0 to 100 scale, 0 no effect, 100 complete control, read-out: Plant response rating, Barnyardgrass
Outline: as §1

[7] = test system: blackgrass (Alopecurus myosuroides); experiment: Test A postemergence; settings: Alopecurus myosuroides, post-emergence, 240 h; for pest or weed control at 125 g/ha: 125 g ai/ha, postemergence, visual injury on 0 to 100 scale (0 no effect, 100 complete control), approx. 10 d, read-out: Blackgrass plant response rating; for pest or weed control at 31 g/ha: Postemergence, 31 g ai/ha, visual injury after approx. 10 d, 0 to 100 scale, 0 no effect, 100 complete control, read-out: Plant response rating, Blackgrass
Outline: as §1

[8] = test system: pigweed (Amaranthus retroflexus); experiment: Test A postemergence; settings: Amaranthus retroflexus, post-emergence, 240 h; for pest or weed control at 125 g/ha: 125 g ai/ha, postemergence, visual injury on 0 to 100 scale (0 no effect, 100 complete control), approx. 10 d, read-out: Pigweed plant response rating; for pest or weed control at 31 g/ha: Postemergence, 31 g ai/ha, visual injury after approx. 10 d, 0 to 100 scale, 0 no effect, 100 complete control, read-out: Plant response rating, Pigweed
Outline: as §1

[9] = test system: corn (Zea mays); experiment: Test A postemergence; settings: Zea mays, post-emergence, 240 h; for plant injury at 125 g/ha: 125 g ai/ha, postemergence, visual injury on 0 to 100 scale (0 no effect, 100 complete control), approx. 10 d, read-out: Corn plant response rating; for Corn plant response rating (crop injury, 0 = no effect, 100 = complete kill) at 31 g/ha: Postemergence, 31 g ai/ha, visual injury after approx. 10 d, 0 to 100 scale, 100 complete control
Outline: as §1

[10] = test system: Galium (catchweed bedstraw, Galium aparine); experiment: Test A postemergence; settings: Galium, post-emergence, 240 h; for pest or weed control at 125 g/ha: 125 g ai/ha, postemergence, visual injury on 0 to 100 scale (0 no effect, 100 complete control), approx. 10 d, read-out: Galium plant response rating; for pest or weed control at 31 g/ha: Postemergence, 31 g ai/ha, visual injury after approx. 10 d, 0 to 100 scale, 0 no effect, 100 complete control, read-out: Plant response rating, Galium
Outline: as §1

[11] = test system: giant foxtail (Setaria faberii); experiment: Test A postemergence; settings: Setaria faberi, post-emergence, 240 h; for pest or weed control at 125 g/ha: 125 g ai/ha, postemergence, visual injury on 0 to 100 scale (0 no effect, 100 complete control), approx. 10 d, read-out: Foxtail, Giant plant response rating; for pest or weed control at 31 g/ha: Postemergence, 31 g ai/ha, visual injury after approx. 10 d, 0 to 100 scale, 0 no effect, 100 complete control, read-out: Plant response rating, Foxtail, Giant
Outline: as §1

[12] = test system: Kochia (Kochia scoparia); experiment: Test A postemergence; settings: Bassia scoparia, post-emergence, 240 h; for pest or weed control at 125 g/ha: 125 g ai/ha, postemergence, visual injury on 0 to 100 scale (0 no effect, 100 complete control), approx. 10 d, read-out: Kochia plant response rating; for pest or weed control at 31 g/ha: Postemergence, 31 g ai/ha, visual injury after approx. 10 d, 0 to 100 scale, 0 no effect, 100 complete control, read-out: Plant response rating, Kochia
Outline: as §1

[13] = test system: wheat (Triticum aestivum); experiment: Test A postemergence; settings: Triticum aestivum, post-emergence, 240 h; for plant injury at 125 g/ha: 125 g ai/ha, postemergence, visual injury on 0 to 100 scale (0 no effect, 100 complete control), approx. 10 d, read-out: Wheat plant response rating; for plant injury at 31 g/ha: Postemergence, 31 g ai/ha, visual injury after approx. 10 d, 0 to 100 scale, 0 no effect, 100 complete control, read-out: Plant response rating, Wheat
Outline: as §1

[14] = test system: ryegrass, Italian (Italian ryegrass, Lolium multiflorum); experiment: Test A postemergence; settings: Lolium multiflorum, post-emergence, 240 h; for pest or weed control at 125 g/ha: 125 g ai/ha, postemergence, visual injury on 0 to 100 scale (0 no effect, 100 complete control), approx. 10 d, read-out: Ryegrass, Italian plant response rating; for pest or weed control at 31 g/ha: Postemergence, 31 g ai/ha, visual injury after approx. 10 d, 0 to 100 scale, 0 no effect, 100 complete control, read-out: Plant response rating, Ryegrass, Italian
Outline: as §1

[15] = test system: ragweed (common ragweed, Ambrosia elatior); experiment: Test A postemergence; settings: Ambrosia artemisiifolia, post-emergence, 240 h; for pest or weed control at 125 g/ha: 125 g ai/ha, postemergence, visual injury on 0 to 100 scale (0 no effect, 100 complete control), approx. 10 d, read-out: Ragweed plant response rating; for pest or weed control at 31 g/ha: Postemergence, 31 g ai/ha, visual injury after approx. 10 d, 0 to 100 scale, 0 no effect, 100 complete control, read-out: Plant response rating, Ragweed
Outline: as §1

## COc1cccc([C@H]2CN(C)C(=O)[C@@H]2C(=O)Nc2ccc(F)c(F)c2F)c1 [Compound 1063]
[1]
  pest or weed control at 31 g/ha: 100%
  pest or weed control at 125 g/ha: 100%
[2]
  pest or weed control at 31 g/ha: 0%
  pest or weed control at 125 g/ha: 0%
[3]
  pest or weed control at 31 g/ha: 10%
  pest or weed control at 125 g/ha: 20%
[4]
  pest or weed control at 31 g/ha: 0%
  pest or weed control at 125 g/ha: 0%
[5]
  pest or weed control at 31 g/ha: 0%
  pest or weed control at 125 g/ha: 30%
[6]
  pest or weed control at 125 g/ha: 90%
  pest or weed control at 31 g/ha: 70%
[7]
  pest or weed control at 125 g/ha: 30%
  pest or weed control at 31 g/ha: 20%
[8]
  pest or weed control at 125 g/ha: 20%
  pest or weed control at 31 g/ha: 0%
[9]
  plant injury at 125 g/ha: 50%
  Corn plant response rating (crop injury, 0 = no effect, 100 = complete kill) at 31 g/ha: 0%
[10]
  pest or weed control at 125 g/ha: 50%
  pest or weed control at 31 g/ha: 30%
[11]
  pest or weed control at 125 g/ha: 90%
  pest or weed control at 31 g/ha: 80%
[12]
  pest or weed control at 125 g/ha: 0%
  pest or weed control at 31 g/ha: 0%
[13]
  plant injury at 125 g/ha: 40%
  plant injury at 31 g/ha: 0%
[14]
  pest or weed control at 125 g/ha: 30%
  pest or weed control at 31 g/ha: 0%
[15]
  pest or weed control at 125 g/ha: 0%
  pest or weed control at 31 g/ha: 0%

## COc1cccc([C@H]2CN(C)C(=O)[C@@H]2C(=O)Nc2cccc(F)c2F)c1 [Compound 1062]
[1]
  pest or weed control at 31 g/ha: 100%
  pest or weed control at 125 g/ha: 100%
[2]
  pest or weed control at 31 g/ha: 0%
  pest or weed control at 125 g/ha: 0%
[3]
  pest or weed control at 31 g/ha: 0%
  pest or weed control at 125 g/ha: 20%
[4]
  pest or weed control at 31 g/ha: 10%
  pest or weed control at 125 g/ha: 20%
[5]
  pest or weed control at 31 g/ha: 70%
  pest or weed control at 125 g/ha: 0%
[6]
  pest or weed control at 125 g/ha: 90%
  pest or weed control at 31 g/ha: 70%
[7]
  pest or weed control at 125 g/ha: 30%
  pest or weed control at 31 g/ha: 0%
[8]
  pest or weed control at 125 g/ha: 0%
  pest or weed control at 31 g/ha: 0%
[9]
  plant injury at 125 g/ha: 0%
  Corn plant response rating (crop injury, 0 = no effect, 100 = complete kill) at 31 g/ha: 0%
[10]
  pest or weed control at 125 g/ha: 50%
  pest or weed control at 31 g/ha: 0%
[11]
  pest or weed control at 125 g/ha: 90%
  pest or weed control at 31 g/ha: 90%
[12]
  pest or weed control at 125 g/ha: 0%
  pest or weed control at 31 g/ha: 0%
[13]
  plant injury at 125 g/ha: 30%
  plant injury at 31 g/ha: 0%
[14]
  pest or weed control at 125 g/ha: 20%
  pest or weed control at 31 g/ha: 0%
[15]
  pest or weed control at 125 g/ha: 30%
  pest or weed control at 31 g/ha: 30%
